Experimental data reported in patent US20080096884A1, “4-Aminoquinoline-3-Carboxamide Derivatives as Pde4 Inhibitors” (priority 2003, published 2008).

How the values were obtained:
[1] = biological target: T1, PDE4B (human recombinant) (Homo sapiens, UniProt Q07343); test: Inhibition of PDE4B catalytic activity (SPA or IMAP FP assay); format: biochemical; settings: SPA or FP assay not specified, read-out: PDE4B mean pIC50 (converted)
T1 construct: made in house; host or cells: Saccharomyces cerevisiae strain GL62 (as described in the cited WO 94/20079)
T1 sequence (Q07343 1-564 isoform Q07343-2): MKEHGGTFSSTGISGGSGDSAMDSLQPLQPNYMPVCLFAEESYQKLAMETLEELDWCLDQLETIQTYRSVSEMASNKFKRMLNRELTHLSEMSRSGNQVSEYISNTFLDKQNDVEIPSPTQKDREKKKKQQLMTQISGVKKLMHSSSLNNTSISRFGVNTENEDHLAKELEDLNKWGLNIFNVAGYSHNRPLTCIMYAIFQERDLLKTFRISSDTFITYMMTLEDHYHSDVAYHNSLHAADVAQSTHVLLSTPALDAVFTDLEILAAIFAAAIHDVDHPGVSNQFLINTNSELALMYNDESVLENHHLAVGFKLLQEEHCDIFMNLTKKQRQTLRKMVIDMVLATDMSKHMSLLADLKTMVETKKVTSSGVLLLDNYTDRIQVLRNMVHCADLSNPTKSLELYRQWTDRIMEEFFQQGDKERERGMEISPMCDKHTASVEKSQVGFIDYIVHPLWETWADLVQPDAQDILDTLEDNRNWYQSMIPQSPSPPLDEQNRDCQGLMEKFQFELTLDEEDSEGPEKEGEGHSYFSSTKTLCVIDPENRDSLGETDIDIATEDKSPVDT
Source text: Human recombinant PDE4B, in particular the 2B splice variant thereof (HSPDE4B2B), is disclosed in WO 94/20079 and also in M. M. McLaughlin et al., “A low Km, rolipram-sensitive, cAMP-specific phosphodiesterase from human brain: cloning and expression of cDNA, biochemical characterisation of recombinant protein, and tissue distribution of mRNA”, J. Biol. Chem., 1993, 268, 6470-6476. […]
(§1) The ability of compounds to inhibit catalytic activity at PDE4B or 4D (human recombinant), PDE3 (from bovine aorta) PDE5 (human recombinant) or PDE 6 (from bovine retina) may be determined by Scintillation Proximity Assay (SPA) in 96-well format. […] Bound radioactive product was measured using a WALLAC TRILUX 1450 MicroBeta scintillation counter. […] Curves were analysed using ActivityBase and XLfit (ID Businesss Solutions Limited, 2 Ocean Court, Surrey Research Park, Guildford, Surrey GU2 7QB, United Kindgom). Results were expressed as pIC50 values.
The ability of compounds to inhibit catalytic activity at PDE4B (human recombinant) and PDE4D (human recombinant) was determined by IMAP Fluorescence Polarisation (FP) assay (Molecular Devices Ltd code: R8062) in 384-well format. […]
Fluorescein adenosine 3′,5′-cyclic phosphate (Molecular Devices Ltd code: R7091) was added to give ˜40 nM final concentration. […] Curves were analysed using ActivityBase and XLfit (ID Businesss Solutions Limited). […]

[2] = biological target: PDE5 (human recombinant) (Homo sapiens, UniProt O76074); test: Inhibition of PDE5 catalytic activity (SPA); format: biochemical; settings: read-out: PDE5 mean pIC50 (converted)
Source text: Human recombinant PDE5 is disclosed in K. Loughney et al., “Isolation and characterisation of cDNAs encoding PDE5A, a human cGMP-binding, cGMP-specific 3′,5′-cyclic nucleotide phosphodiesterase”, Gene, 1998, 216, 139-147.
as §1, with “format. Test compounds (preferably as a solution in DMSO, e.g. 2 microlitre (μl) volume) were preincubated at ambient temperature in Wallac Isoplates (code 1450-514) with PDE enzyme in 50 mM Tris-HCl buffer pH 7.5, 8.3 mM MgCl2, 1.7 mM EGTA, 0.05% (w/v) bovine serum albumin for 10-30 minutes. The enzyme concentration was adjusted so that control rates are linear over the asay incubation period.” for “format.”

SMILES	IC50 [1] [µM]	IC50 [2] [µM]
NC(=O)c1cnc2ccc(S(=O)(=O)N3CCOCC3)cc2c1Nc1cccc(Cl)c1 [Example 4]	0.00251	12.6
COc1cccc(Nc2c(C(N)=O)cnc3ccc(S(=O)(=O)N(C)C)cc23)c1 [Example 2, 6-[(dimethylamino)sulfonyl]4-{[3-(methyloxy)phenyl]amino}-3-quinolinecarboxamide]	0.001	15.8
